Data published in patent US6734163B2, “Compositions and methods for inhibiting cellular proliferation” (EntreMed, Inc., priority 1997, dated 2004).
Entries after “also recorded” stand apart in the source; their conditions may differ. Where two headings read alike, the source gives them in different places.

System: human umbilical vein endothelial (HUVE) cells
Assay: bFGF-induced proliferation of HUVE cells (uridine incorporation)
Type: cell-based
Settings: for antiproliferative activity, plasma TFPI compared with HepG2 TFPI: HUVE cell proliferation assay, FIG. 4; for Effect on Proliferation: bFGF 10 ng/ml, 48 hours, HUVE cells
Protocol: Proliferation assays familiar to those skilled in the art using human umbilical vein endothelial (HUVE) cells were used to determine the effect of TFPI on bFGF-induced proliferation of human umbilical vein endothelial cells.
The proliferation assay involved the routine culturing of human umbilical vein endothelial (HUVE) cells to confluency in EGM media. The cells were trypsinized and plated in a 96-well plate at 5000 cells per well per 100 μL EBM media. The cells were allowed to adhere to the plate for at least 2 hours. Next, bFGF at 10 ng/ml and TFPI at various concentrations were added to the wells. The cells were cultured for 48 hours after which cell proliferation was determined using a standard uridine incorporation method.
Proliferation assays using HUVE cells, as described in Example 1, were used to determine the effect of heparin on TFPI inhibition of bFGF-induced proliferation. The purpose of this study was to determine whether heparin was able to neutralize the antiproliferative activity of TFPI.
TFPI was pre-incubated with equimolar concentrations of heparin and with concentrations of heparin that were five-fold in excess of the concentration of TFPI. The results are summarized below and are presented graphically in FIGS. 5a and 5b.
Cell proliferation assays, as described in Example 1, were conducted to determine the relative potency of native TFPI versus recombinant TFPI.
Cell proliferation assays, as described in Example 1, were conducted using full length recombinant TFPI, Platelet Factor 4 (PF-4), and recombinant Kringle 1-3 of Angiostatin™ peptide. Both PF-4 and Angiostatin™ peptide are known endogenous inhibitors of angiogenesis. PF-4 is a protein involved in the blood coagulation cascade and is referenced as an inhibitor of angiogenesis by Maione, T. et al. in the article “Inhibition of Angiogenesis by Recombinant Human Platelet Factor-4 and Related Peptides” Science 247:77 (1990). Angiostatin is a fragment of plasminogen and its inhibitory effect on angiogenesis is described by Cao, Y. et al. in the article “Kringle Domains of Human Angiostatin” J. Biol. Chem. 271:1 (1996).
PF-4 and TFPI were tested for inhibition of human umbilical vein endothelial cell (HUVEC) proliferation. Angiostatin™ peptide was tested for the inhibition of bovine capillary endothelial (BCE) proliferation.
Cell proliferation assays, as described above in Example 1, were conducted using fragments of recombinant TFPI containing the following domains: Kunitz-1, Kunitz-2, or Kunitz-3.

[1] = Example 3, native versus recombinant TFPI, read-out: Fifty percent inhibition of the bFGF-induced proliferation of HUVE cells

PF-4: Platelet Factor 4, protein of the blood coagulation cascade, known endogenous inhibitor of angiogenesis [reference compound]
IC50 (Example 4, read-out: concentration required for 50% inhibition of HUVE cell proliferation): 1250 nM

Purified From HepG2 cells: TFPI purified from HepG2 cells containing full length and carboxyl-terminal lacking molecules
antiproliferative activity, plasma TFPI compared with HepG2 TFPI: comparable activities | Effect on Proliferation: Inhibition of Proliferation

Purified From Human Plasma: full length, fully glycosylated TFPI (molecular weight 43,000) purified from human plasma
IC50 [1]: 75 nM | antiproliferative activity, plasma TFPI compared with HepG2 TFPI: comparable activities | Effect on Proliferation: Inhibition of Proliferation

Recombinant, Full Length: full length, partially glycosylated TFPI (molecular weight 35,000) produced recombinantly
IC50 [1]: 150 nM | potency relative to recombinant PF-4 (HUVE cell proliferation, 50% inhibition compared): approximately ten times more potent | IC50 (HUVEC proliferation, Example 4 table, read-out: Concentration for 50% Inhibition): ~125 nM | activity relative to recombinant Kringle 1-3 of angiostatin (TFPI on HUVE cells versus Kringle 1-3 on BCE cells): more active | Effect on Proliferation: Inhibition of Proliferation

TFPI: tissue factor pathway inhibitor, source not specified in the heparin experiment (SEQ ID No. 1)
Antiproliferative Activity of TFPI (effect of heparin) (TFPI pre-incubated with equimolar heparin): did not lose its antiproliferative activity; also recorded: No Effect | Antiproliferative Activity of TFPI (effect of heparin) (TFPI pre-incubated with heparin five-fold in excess of TFPI): did not lose its antiproliferative activity; also recorded: No Effect
